Data on 31 molecules can be found in patent US20060111357A1, “Quinoline compounds for use in mch receptor related disorders” (priority 2003, published 2006).

Series [1] deals with T1, human MCH-1 receptor (Homo sapiens, UniProt Q99705).
T1 construct: expressed in transfected cells; host or cells: transiently transfected COS-7 cells or stably transfected CHO cells (pcDNA3.1)
Briefly: MCH receptor binding ([125I]-MCH competition binding / SPA). How it is done: (§1) Transfections and Tissue Culture—The cDNA encoding the human MCH-1 receptor was cloned from a human brain cDNA library and cloned into the eukaryotic expression vector pcDNA3.1 (Invitrogen). Assays were performed on transiently transfected COS-7 cells or stably transfected CHO (Chinese Hamster Ovary) cells, expressing the human MCH-1 receptor in pcDNA3.1. […] Clones were screened by a MCH receptor radioligand binding assay (as described below).
Radioligand Binding Assay—Transiently transfected COS-7 cells or stably transfected CHO cells, expressing human MCH-1 receptor were seeded in multi-well culture plates one day before the assay. The number of cells per well was determined by the apparent expression efficiency of the cell line aiming at 5-10% binding of the added radioligand. […] The assay was performed in duplicate. Nonspecific binding was determined as the binding in the presence of 1 μM MCH (Bachem). Binding data were analyzed and IC50 values determined by non-linear regression using the Prism software (GraphPad software, San Diego). Values of the dissociation and inhibition constants (Kd and Ki) were estimated from competition binding using the equations Kd=IC50-L and Ki=IC50/(1+L/Kd), respectively, where L is the concentration of radioligand.
Membranes and beads were pre-incubated for 20 min. […] Moreover, CHO-K1 membranes expressing the hMCH receptor were purchased from Euroscreen (ES-370-M) and a final concentration of 2 μg/well were used. Binding data were analyzed and IC50 values determined by non-linear regression using the Prism software (GraphPad software, San Diego). Values of the inhibition constant (Ki) were estimated from competition binding using the equation Ki=IC50/(1+L/Kd), where L and Kd are the concentration and affinity constant, respectively, of the radioligand.

For series [2], the target named is T1, human MCH-1 receptor. Briefly: Phosphatidylinositol (IP3) assay, MCH-stimulated turnover. Format: cell-based. As for the experimental part: as §1
Phosphatidylinositol assay—To assay phosphatidylinositol turnover, transiently transfected COS-7 cells or stably transfected CHO cells, expressing human MCH-1 receptor (2×10^5 cells/well) were incubated for 24 h with 5 μCi of (^3H]-myo-inositol (Amersham Pharmacia Biotech) in 0.5 ml inositol-free culture medium. Cells were washed twice in PI-buffer: 20 mM HEPES, pH 7.4, supplemented with 140 mM NaCl, 5 mM KCl, 1 mM MgSO4, 1 mM CaCl2, 10 mM glucose, 0.02% (w/v) bovine serum; and were incubated in 0.5 ml PI-buffer supplemented with 10 mM LiCl at 37° C. for 45 min.
Phosphatidylinositol turnover was stimulated by submaximal concentrations of MCH, i.e. 10 nM in the presence of increasing amounts of ligand. The ligand was added 5 min. before adding the agonist (MCH). Cells were extracted with 10 mM ice-cold Formic acid, and the generated [^3H]-inositol phosphates were purified on Bio-Rad AG 1-X8 anion-exchange resin. Determinations were made in duplicate. PI data were analyzed and IC50 values determined by non-linear regression using the Prism software (GraphPad software, San Diego).

Series [3] addresses T2, HERG channels (Homo sapiens, UniProt Q12809).
The conditions of series [4]: risk of Torsades de Pointes, from www.torsades.org; cited from earlier work.
The target of series [5] is T2, HERG channels. Briefly: HERG selectivity method, whole-cell patch-clamp recordings.
Setting [6] is: stimulated by 10 nM MCH, read-out: IP3 IC50.

SMILES strings stand for the structures. Read-outs that look alike come from different tables or passages of the source.
Wherever Risk Group is given: key: 1: Drugs that are generally accepted by authorities to have a risk of Torsades de Pointes (TdP); 2: Drugs that in some reports may be associated with TdP but at this time lack substantial evidence; 4: Drugs that, in some reports, have been weakly associated with TdP but that when used in usual dosages are unlikely to be a risk for TdP.

T1 sequence (Q99705 whole entry): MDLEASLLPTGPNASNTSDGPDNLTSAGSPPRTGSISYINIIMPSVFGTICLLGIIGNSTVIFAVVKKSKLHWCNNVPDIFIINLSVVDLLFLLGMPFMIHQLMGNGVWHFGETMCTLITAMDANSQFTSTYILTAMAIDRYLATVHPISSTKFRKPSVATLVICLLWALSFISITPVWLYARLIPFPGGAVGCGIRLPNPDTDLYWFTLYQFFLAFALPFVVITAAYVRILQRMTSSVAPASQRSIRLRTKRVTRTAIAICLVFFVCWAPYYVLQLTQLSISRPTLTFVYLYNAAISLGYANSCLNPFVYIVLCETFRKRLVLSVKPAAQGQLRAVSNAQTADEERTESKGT
T2 sequence (Q12809 whole entry): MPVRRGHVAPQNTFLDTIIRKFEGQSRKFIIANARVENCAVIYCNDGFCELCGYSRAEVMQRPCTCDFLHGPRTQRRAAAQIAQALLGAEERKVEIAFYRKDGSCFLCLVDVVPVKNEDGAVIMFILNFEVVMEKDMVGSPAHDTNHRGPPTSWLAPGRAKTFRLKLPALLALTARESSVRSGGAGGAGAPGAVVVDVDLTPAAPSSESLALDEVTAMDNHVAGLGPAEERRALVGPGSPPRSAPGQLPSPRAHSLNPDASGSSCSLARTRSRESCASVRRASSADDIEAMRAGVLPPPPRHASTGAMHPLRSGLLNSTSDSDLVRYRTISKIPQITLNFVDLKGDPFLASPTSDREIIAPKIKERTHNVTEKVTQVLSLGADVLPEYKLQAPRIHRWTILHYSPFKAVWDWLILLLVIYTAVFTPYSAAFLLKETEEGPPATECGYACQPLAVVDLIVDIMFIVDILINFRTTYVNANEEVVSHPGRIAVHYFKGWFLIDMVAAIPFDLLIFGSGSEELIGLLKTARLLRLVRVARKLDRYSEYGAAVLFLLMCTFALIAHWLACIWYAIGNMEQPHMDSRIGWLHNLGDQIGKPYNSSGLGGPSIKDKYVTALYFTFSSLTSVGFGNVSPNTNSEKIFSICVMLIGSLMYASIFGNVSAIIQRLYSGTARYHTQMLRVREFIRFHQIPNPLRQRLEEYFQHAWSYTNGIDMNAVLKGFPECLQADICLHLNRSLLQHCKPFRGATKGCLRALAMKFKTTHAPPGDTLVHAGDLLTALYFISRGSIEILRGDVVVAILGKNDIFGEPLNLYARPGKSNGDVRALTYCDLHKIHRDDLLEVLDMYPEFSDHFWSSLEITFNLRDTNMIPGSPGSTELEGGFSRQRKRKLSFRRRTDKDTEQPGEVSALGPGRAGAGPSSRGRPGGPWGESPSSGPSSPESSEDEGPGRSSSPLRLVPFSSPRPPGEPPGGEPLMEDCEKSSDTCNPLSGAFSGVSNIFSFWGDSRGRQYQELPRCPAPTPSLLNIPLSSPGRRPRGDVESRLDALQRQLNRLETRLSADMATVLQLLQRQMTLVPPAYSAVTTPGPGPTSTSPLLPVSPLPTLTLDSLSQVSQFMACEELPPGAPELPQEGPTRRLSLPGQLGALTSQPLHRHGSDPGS

As for `Cc1cc(N2CCN(C)CC2)nc2ccc(NC(=O)C(C)Oc3ccc(Cl)cc3Cl)cc12` (stereo not drawn), the IC50 in series [1] came to 280 nM; in series [2] (setting [6]) it was 2000 nM.

For `CC(C)NCC(O)c1ccc(NS(C)(=O)=O)cc1` (racemic) [(±) sotalol], in series [3], the “Ki in μM ± S.D. (#)” value is given as “No effect at 100 (5)”. Further, the “Risk Group” value in series [4] was 1.

For `CCCCc1oc2ccccc2c1C(=O)c1cc(I)c(OCCN(CC)CC)c(I)c1` [Amiodarone], the “Risk Group” value in series [4] is listed as 1.

As for `CN(C)CCC=C1c2ccccc2CCc2ccccc21` [Amitriptyline], in series [4], the “Risk Group” value is listed as 4.

Turning to `Clc1ccc2c(c1)C(N1CCNCC1)=Nc1ccccc1O2` [Amoxapine], in series [4], the “Risk Group” value is on record as 4.

As to `CC(C)COCC(CN(Cc1ccccc1)c1ccccc1)N1CCCC1` (stereo not drawn) [Bepridil], the “Risk Group” value in series [4] is reported as 1.

`CN1CCN(C(c2ccccc2)c2ccc(Cl)cc2)CC1` (stereo not drawn) [Chlorcyclizine] yielded a Ki in series [5] of 4 ± 1.4 µM.

As for `CN(C)CCCN1c2ccccc2Sc2ccc(Cl)cc21` [Chlorpromazine], the “Risk Group” value in series [4] is 1.

In the case of `CN1CCN(CC/C=C2/c3ccccc3Sc3ccc(S(=O)(=O)N(C)C)cc32)CC1` [Cis-Thiothixene], the Ki in series [5] (read-out: Ki in μM ± S.D. (#), HEK 293 cells stably expressing HERG+KCNE1, tail-current block, room temperature, Ki=koff/kon) is 8.6 ± 2.7 µM.

With `CNCCCN1c2ccccc2CCc2ccccc21` [Desipramine], in series [4], the “Risk Group” value is on record as 4.

`CN(C)CCC=C1c2ccccc2COc2ccccc21` [Doxepine]: the “Risk Group” value in series [4] is on record as 4.

As to `Cc1cc(N2CCN(C)CC2)nc2ccc(NC(=O)/C=C/c3ccc(OC(F)(F)F)cc3)cc12` [Example 16, (E)-N-[4-Methyl-2-(4-methyl-piperazin-1-yl)-quinolin-6-yl]-3-(4-trifluoromethoxy-phenyl)-acrylamide], the IC50 was 11 nM in series [1] and 42 nM in series [2] (setting [6]).

`Cc1cc(N2CCCNCC2)nc2ccc(NC(=O)COc3ccc(OC(F)(F)F)cc3)cc12` [Example 25, N-(2-[1,4]Diazepan-1-yl-4-methylquinolin-6-yl)-2-(4-trifluoromethoxyphenoxy)-acetamide]: the figures for the IC50 in series [1] and in series [2] (setting [6]) were 12 nM and 71 nM, respectively.

In the case of `Cc1cc(N2CCC(N)CC2)nc2ccc(NC(=O)COc3ccc(Cl)cc3Cl)cc12` [Example 33, N-[2-(4-Amino-piperidin-1-yl)-4-methyl-quinolin-6-yl]-2-(2,4-dichloro-phenoxy)-acetamide], the figures for the IC50 in series [1] and in series [2] (setting [6]) were 41 nM and 63 nM, respectively.

`Cc1cc(N2CCN(CCO)CC2)nc2ccc(NC(=O)COc3ccc(OC(F)(F)F)cc3)cc12` [Example 38, N-{2-[4-(2-Hydroxy-ethyl)-piperazin-1-yl]-4-methyl-quinolin-6-yl}-2-(4-trifluoromethoxy-phenoxy)-acetamide]: the IC50 in series [1] turned out to be 50 nM; in series [2] (setting [6]), 23 nM.

With `Cc1cc(NCCN(C(C)C)C(C)C)nc2ccc(NC(=O)COc3ccc(OC(F)(F)F)cc3)cc12` [Example 40, N-[2-(2-Diisopropylamino-ethylamino)-4-methyl-quinolin-6-yl]-2-(4-trifluoromethoxy-phenoxy)-acetamide], in series [1], the IC50 came to 22 nM.

For `Cc1cc(NCCN2CCOCC2)nc2ccc(NC(=O)COc3ccc(OC(F)(F)F)cc3)cc12` [Example 42, N-[4-Methyl-2-(2-morpholin-4-yl-ethylamino)-quinolin-6-yl]-2-(4-trifluoromethoxy-phenoxy)-acetamide], the concentration for half-maximal inhibition (IC50) in series [1] is 10 nM; in series [2] (setting [6]), 16 nM.

On to `Cc1cc(NCC(C)(C)CN(C)C)nc2ccc(NC(=O)COc3ccc(OC(F)(F)F)cc3)cc12` [Example 45, N-[2-(3-Dimethylamino-2,2-dimethyl-propylamino)-4-methyl-quinolin-6-yl]-2-(4-trifluoromethoxy-phenoxy)-acetamide], for which the IC50 in series [1] came out at 21 nM; in series [2] (setting [6]), 190 nM.

For `CCN1CCCC1CNc1cc(C)c2cc(NC(=O)/C=C/c3ccc(OC(F)(F)F)cc3)ccc2n1` (stereo not drawn) [Example 62, (E)-N-{2-[(1-Ethyl-pyrrolidin-2-ylmethyl)-amino]-4-methyl-quinolin-6-yl}-3-(4-trifluoromethoxy-phenyl)-acrylamide], the IC50 in series [1] turned out to be 13 nM; in series [2] (setting [6]), 10 nM.

As for `Cc1cc(OCCN(C)C)nc2ccc(NC(=O)COc3ccc(Cl)cc3Cl)cc12` [Example 76, 2-(2,4-Dichloro-phenoxy)-N-[2-(2-dimethylamino-ethoxy)-4-methyl-quinolin-6-yl]-acetamide], the IC50 in series [2] was 135 nM.

For the molecule `Cc1cc(N(C)CCN(C)C)nc2ccc(NC(=O)CCc3ccc(OC(F)(F)F)cc3)cc12` [Example 98, N-{2-[(2-Dimethylamino-ethyl)-methyl-amino]-4-methyl-quinolin-6-yl}-3-(4-trifluoromethoxy-phenyl)-propionamide], the IC50 in series [1] came out at 37 nM; in series [2] (setting [6]), 720 nM.

Consider `Cc1nc(N(C)CCCN(C)C)nc2ccc(NC(=O)COc3ccc(Cl)cc3Cl)cc12` [Example 137, 2(2,4-Dichlorophenoxy)N{2[(3-dimethylaminopropyl)methyl-amino]-4-methyl-quinazolin-6-yl}-acetamide], for which the results for the IC50 in series [1] and in series [2] (setting [6]) were 10 nM and 63 nM, respectively.

For the molecule `Cc1cc(N(C)CCN(C)C)nc2ccc(NC(=O)c3ccc(-c4ccc(C(F)(F)F)cc4)cc3)cc12` [Example 183, 4′-Trifluoromethyl-biphenyl-4-carboxylic acid {2-[(2-dimethylamino-ethyl)-methyl-amino]-4-methyl-quinolin-6-yl}-amide], the IC50 in series [1] was 63 nM; in series [2] (setting [6]), 474 nM.

With `CNCCC(Oc1ccc(C(F)(F)F)cc1)c1ccccc1` (stereo not drawn) [Fluoxetine], the “Risk Group” value in series [4] is listed as 4.

Molecule `OCCN1CCN(CCCN2c3ccccc3Sc3ccc(C(F)(F)F)cc32)CC1` [Fluphenazine] registered a Ki in series [5] of 2.5 ± 0.57 µM.

In series [3], `O=C(CCCN1CCC(O)(c2ccc(Cl)cc2)CC1)c1ccc(F)cc1` [Haloperidole] returned a Ki of 170 nM. Moreover, in series [4], the “Risk Group” value was 1.

On to `CN(C)CCCN1c2ccccc2CCc2ccccc21` [Imipramine], for which, in series [4], the “Risk Group” value is recorded as 4.

Consider `CC(=O)N1CCN(c2ccc(OCC3COC(Cn4ccnc4)(c4ccc(Cl)cc4Cl)O3)cc2)CC1` (stereo not drawn) [Ketoconazole], for which, in series [4], the “Risk Group” value is 4.

Turning to `O=c1[nH]c2ccccc2n1C1CCN(CCCC(c2ccc(F)cc2)c2ccc(F)cc2)CC1` [Pimozide], the “Risk Group” value in series [4] is given as 1.

For the molecule `Cc1nc2n(c(=O)c1CCN1CCC(c3noc4cc(F)ccc34)CC1)CCCC2` [Risperidone], the “Risk Group” value in series [4] is given as 2.

Take `CC(CN(C)C)CN1c2ccccc2CCc2ccccc21` (stereo not drawn) [Trimipramine]: the “Ki in μM ± S.D. (#)” value in series [3] was “No effect at 10”. Besides, the “Risk Group” value in series [4] is 4.
